Reference: patent publication US20170027951A1, “METHODS AND COMPOSITIONS TO TREAT CANCERS INVOLVING EGFR” (Southern Research Institute, priority 2015, published 2017)

Columns and labels:
[1] = patients with mCRC, Amado et al. 2008; cited from earlier work
RKO cells [2] = assay: CellTiter-Glo cell viability assay in RKO cells (WT KRas, express HGF); assay type: cell-based; conditions: FIG. 1A; 96 hours after treatment; gefitinib 5 μM, JNJ 38877605 1 μM, PD184161 0.01, 0.05 or 1 μM
Experimental: Cell viability assays were conducted using the CellTiter-Glo® Luminescent Cell Viability Assay kit purchased from Promega Corporation (Madison, Wis., US) and used per the manufacturer's protocol. Cells were seeded in 96-well plates at a density of 1×10^4 cells per well and cell viability was assessed at the indicated time points.

HCT116 cells [3] = assay: CellTiter-Glo cell viability assay in HCT116 cells (MT KRas, express HGF); assay type: cell-based; conditions: FIG. 2A; 96 hours after treatment; gefitinib 5 μM, JNJ 38877605 1 μM, PD184161 0.01 or 0.02 μM
Text: Due to the presence of MT KRas, HCT116 cells have activated ERK signaling.

RKO cells [4] = assay: Clonogenic (colony formation) assay in RKO cells; assay type: cell-based; conditions: FIG. 1B; 10 days after treatment; gefitinib 5 μM, JNJ 38877605 1 μM, PD184161 0.01, 0.05 or 1 μM
Experimental: (§1) For clonogenic assay cells were seeded in 6-well plates at a density of 400 cells per well and were treated as indicated. After colony formation (8-12 days), cells were stained with crystal violet (0.5% w/v) (see Kueng W., et al., Anal Biochem (1989) 182: 16-19), and the number of colonies was determined using ImageQuant TL software (GE Healthcare Life Sciences, Pittsburgh, Pa., US).
The effect of treatment with gefitinib alone or in combination with an inhibitor of MET kinase activity (using the inhibitor JNJ388777605) or inhibitor of MEK kinase activity (using the inhibitor PD184161) on viability and clonogenic growth was determined in RKO and HT29 cells.

HCT116 cells [5] = assay: Clonogenic (colony formation) assay in HCT116 cells; assay type: cell-based; conditions: FIG. 2B; 10 days after treatment; gefitinib 5 μM, JNJ 38877605 1 μM, PD184161 0.01 or 0.02 μM
Experimental: HCT116 cells, which are MT KRas, were treated with gefitinib (5 μM) in the absence or presence of a MET kinase inhibitor (JNJ 38877605; 1 μM) or a MEKI kinase inhibitor (PD184161; 0.01 μM or 0.02 μM) as indicated.
as §1

DiFi cells = assay: Caspase-Glo 3/7 activity assay in DiFi cells with or without CCD-18Co fibroblast conditioned medium; assay type: cell-based; conditions: FIG. 3C, 18 hr post-treatment; for caspase 3/7 activity (apoptosis), single agent: gefitinib 1 μM or JNJ 38877605 1 μM alone, no fibroblast conditioned media
Text: Media were removed and replaced with serum-free MEM.

ERK 1/2 = assay: Western blot of ERK 1/2 phosphorylation in RKO cells; assay type: cell-based; conditions: FIG. 1D, gefitinib dose or times post-treatment
Experimental: Immunoblotting was performed using standard procedures. Nitrocellulose membranes (GE Healthcare Life Sciences, Pittsburgh, Pa.) were blocked with 5% non-fat milk for 1 hour at room temperature, and incubated with primary antibodies overnight at 4° C. Primary antibodies used were anti-p-ERK1/2 (Cell Signaling Technology, Inc., Danvers, Mass., US) and anti-β-actin (Sigma-Aldrich Co. LLC, Saint Louis, Mo., US). Following washing with TBS-T buffer, membranes were incubated with horseradish peroxidase-conjugated secondary antibodies for 1 hour and then washed with TBS-T. Immunoblots were developed using the Amersham Western Blotting ECL chemiluminescent reagents (GE Healthcare Life Sciences, Pittsburgh, Pa., US). Protein loading was normalized by probing blots for the expression of β-actin.

Row | Compound | KRas WT patients who benefit [1] [%] | effect on RKO cell viability (RKO cells [2]) | effect on HCT116 cell viability (HCT116 cells [3]) | effect on clonogenic growth (colony formation) of RKO cells (RKO cells [4]) | effect on clonogenic growth (colony formation) of HCT116 cells (HCT116 cells [5]) | caspase 3/7 activity (apoptosis), single agent (DiFi cells) | caspase 3/7 activity (apoptosis) in the presence of fibroblast conditioned media (FIB) (DiFi cells; gefitinib 1 μM, JNJ 38877605 1 μM, CCD-18Co conditioned media) | phosphorylation status of ERK 1/2 (p-ERK 1/2 by Western blot) (ERK 1/2)
1 | panitumumab | 17 |  |  |  |  |  |  | 
2 | PD184161 |  | no apparent effect on cell viability | no apparent effect on cell viability | no apparent effect on clonogenic growth | no apparent effect on clonogenic growth |  |  | 
3 | COc1cc2ncnc(Nc3ccc(F)c(Cl)c3)c2cc1OCCCN1CCOCC1 [gefitinib] |  | modest | modestly decreased cell viability | no apparent effect on clonogenic growth | no apparent effect on clonogenic growth | increase in caspase 3/7 activity | inhibit gefitinib-induced apoptosis | an increase in the amount of p-ERK 1/2
4 | Cn1cc(-c2ccc3nnc(C(F)(F)c4ccc5ncccc5c4)n3n2)cn1 [JNJ 38877605] |  | no apparent effect on cell viability | no apparent effect on cell viability | no apparent effect on clonogenic growth | no apparent effect on clonogenic growth | no apparent effect on induction of caspases/apoptosis |  | 
